Reference: US11807628B2, “Benzodiazepine derivatives and uses thereof” (priority 2018, dated 2023)
Non-standard residues stand in square brackets, D forms with d. Residues, ends and D or L forms follow the SMILES beside them. Dolaproine = CO[C@@H]([C@@H]1CCCN1)[C@@H](C)C(=O)O; Dil = CC[C@H](C)[C@H](NC)[C@@H](CC(=O)O)OC; NMeV = CN[C@H](C(=O)O)C(C)C

Assays:
[1] = test system: A-498; assay: In vitro analysis of benzodiazepine dimer derivatives, MTT cell viability; assay type: cell-based; details: MTT assay, 6 days incubation
Procedure: (§1) Example 85: In Vitro Analysis of Benzodiazepine Dimer Derivatives A-498, HCT-116, JIMT-1, MIA-PaCa-2 and HEK-293E were seeded into 24-well plates at 10×10^3 cells/1 mL medium/well. Calu-6, PC-3 and SK-OV-3 were seeded into 24-well plates at 15×10^3 cells/1 mL medium/well. NCI-N87 was seeded into 24-well plates at 25×10^3 cells/1 mL medium/well. The plates were incubated for 24 hours at 37° C. in a humidified 5% CO2-in-air atmosphere. Benzodiazepine dimer derivatives were dissolved initially in DMSO at a concentration of 10 mM. Serial dilutions were made in DMSO. The series of compound dilutions in DMSO were added to triplicate wells of 24-well plates at 5 μL per well. Three wells on each individual plate received 5 μL of DMSO without compound as controls. The final concentration of DMSO per well was 0.5%. The plates were incubated for 6 days at 37° C. in a humidified 5% CO2-in-air atmosphere. Cell viability was determined by the MTT assay and IC50 was generated using a sigmoidal dose-response nonlinear regression curve fit (GraphPad Software Inc.).

[2] = test system: Calu-6; assay: as above; assay type: cell-based; details: MTT assay, 6 days incubation
Procedure: as §1

[3] = test system: HCT-116; assay: as above; assay type: cell-based; details: MTT assay, 6 days incubation
Procedure: as §1

[4] = test system: HEK-293E; assay: as above; assay type: cell-based; details: MTT assay, 6 days incubation
Procedure: as §1

[5] = test system: JIMT-1; assay: as above; assay type: cell-based; details: MTT assay, 6 days incubation
Procedure: as §1

[6] = test system: MIA-PaCa2; assay: as above; assay type: cell-based; details: MTT assay, 6 days incubation
Procedure: as §1

[7] = test system: PC-3; assay: as above; assay type: cell-based; details: MTT assay, 6 days incubation
Procedure: as §1

[8] = test system: SK-OV3; assay: as above; assay type: cell-based; details: MTT assay, 6 days incubation
Procedure: as §1

[9] = test system: NCI-N87; assay: as above; assay type: cell-based; details: Homo sapiens, NCI-N87, 144 h; MTT assay, 6 days incubation
Procedure: as §1

[10] = test system: JIMT-1; assay: Cell cytotoxicity of antibody-drug conjugate; assay type: cell-based; details: living cells quantified 96 hours later
Procedure: (§2) NCI-N87, JNMT-2, SK-BR3, and SK-V3 cancer cells were seeded in 96-well plates at a density of 2,000 to 8,000 cells per well in 100 μL of medium, and cultured for 24 hours. The four compounds obtained in Example 46 were treated by serial dilutions of 1:4 from 600 nM to 0.009 nM, and the antibody drug conjugate T-DM1 was treated by serial dilutions of 1:4 from 200 nM to 0.003 nM. Experiments were performed in a similar manner to Test Example 1 to quantify living cells 96 hours later, and results are shown in Table 2 below. Further, results of in vitro analysis of compound T-2-AB, T-3-AB, T-7-AB T-8-AB, T-9-AB, T-11-AB, T-12-AB, T-13-AB, T-14-AB, T-15-AB, T-16-AB, T-17-AB, T-Int-1-AB, T-Int-2-AB, T-Int-14-AB and mT-Int-8-AB were shown in FIG. 10, FIG. 11, FIG. 12, and Table 3.

[11] = test system: NCI-N87; assay: Cell cytotoxicity of antibody-drug conjugate; assay type: cell-based; details: living cells quantified 96 hours later
Procedure: as §2

[12] = test system: SK-BR3; assay: Cell cytotoxicity of antibody-drug conjugate; assay type: cell-based; details: living cells quantified 96 hours later
Procedure: as §2

[13] = test system: SK-OV3; assay: Cell cytotoxicity of antibody-drug conjugate; assay type: cell-based; details: living cells quantified 96 hours later
Procedure: as §2

[14] = test system: NCI-N87 cells; assay: In vivo efficacy, tumor xenograft studies in mice; details: Male BALB/c nu/nu mice, tumors approximately 95 mm^3 at start, single i.v. injection day 0 (T-2-AB 0.5 or 2 mg/kg, T-DM1 2 mg/kg), 80 days observation
Procedure: In vivo efficacy of antibody-drug conjugates of the invention was measured by tumor xenograft studies in mice. Male BALB/c nu/nu were injected subcutaneously in the right flank with suspensions of 5×10^6 of NCI-N87 cells respectively in PBS. Mice were randomized into study groups when tumors reached approximately 95 mm^3. T-DM1 (2 mg/kg) and T-2-AB conjugates (0.5 mg/kg or 2 mg/kg) were given i.v. (single injection on treatment day 0). All treatment groups consisted of 6 to 10 animals per group, and tumor size was monitored twice weekly using caliper measurement. The tumor mass was calculated as volume=(width×width×length)/2.
T-7-AB was progressed in the same method except initial tumor size was 150 mm^3.

[15] = Homo sapiens, MIA PaCa-2, 144 h

COc1cc2c(cc1OCc1cc(COc3cc4c(cc3OC)C(=O)N3Cc5ccccc5C[C@H]3C=N4)cc(CN(C)C)c1)N=C[C@@H]1Cc3ccccc3CN1C2=O [Compound D-5, (N,N-dimethylbenzyl)-TBD-Dimer]
IC50 ([1]; Homo sapiens, A498, 144 h): 2.9 pM
IC50 ([2]; Homo sapiens, Calu-6, 144 h): 1.4 pM
IC50 ([3]; Homo sapiens, HCT-116, 144 h): 0.0014 ± 0.0006 nM
IC50 ([4]; HEK293E, 144 h): 0.0022 ± 0.0011 nM
IC50 ([5]; Homo sapiens, JIMT-1, 144 h): 1.7 ± 0.5 pM
IC50 [6, 15]: 0.0019 ± 0.0016 nM
IC50 ([7]; Homo sapiens, PC-3, 144 h): 0.0044 ± 0.0021 nM
IC50 ([8]; Homo sapiens, SK-OV-3, 144 h): 0.0109 ± 0.0027 nM

COc1cc2c(cc1OCc1cncc(COc3cc4c(cc3OC)C(=O)N3Cc5ccccc5C[C@H]3C=N4)c1)N=C[C@@H]1Cc3ccccc3CN1C2=O [Compound D-4, (Pyridine)-TBD-Dimer]
IC50 ([5]; Homo sapiens, JIMT-1, 144 h): 1.7 ± 0.6 pM
IC50 [9]: 3.8 ± 2.4 pM

T-DM1
IC50 [10]: 3.15 ± 1.76 nM
IC50 [11]: 0.234 ± 0.096 nM
IC50 [12]: 0.037 ± 0.012 nM
IC50 [13]: 0.109 ± 0.004 nM
Tumor size in NCI-N87 xenograft [14]: less active than the conjugates of the invention

COc1cc2c(cc1OCc1cccc(COc3cc4c(cc3OC)C(=O)N3Cc5ccccc5C[C@H]3C=N4)c1)N=C[C@@H]1Cc3ccccc3CN1C2=O [Ref-1, reference compound]
IC50 ([5]; Homo sapiens, JIMT-1, 144 h): 5.4 ± 1.6 pM
IC50 [9]: 3.5 ± 2.8 pM

COc1cc2c(cc1OCc1cc(O)cc(COc3cc4c(cc3OC)C(=O)N3C=C(c5ccccc5)C[C@H]3C=N4)c1)N=C[C@@H]1CC(c3ccccc3)=CN1C2=O [Compound D-11]
IC50 [9]: 173 ± 34 pM

COc1cc2c(cc1OCc1cc(O)cc(COc3cc4c(cc3OC)C(=O)N3Cc5ccccc5C[C@H]3C=N4)c1)N=C[C@@H]1Cc3ccccc3CN1C2=O [Compound D-3, (Phenol)-TBD-Dimer]
IC50 ([1]; Homo sapiens, A498, 144 h): 139 pM
IC50 ([2]; Homo sapiens, Calu-6, 144 h): 6.2 pM
IC50 ([3]; Homo sapiens, HCT-116, 144 h): 0.0137 ± 0.0086 nM
IC50 ([4]; HEK293E, 144 h): 0.0114 ± 0.0026 nM
IC50 ([5]; Homo sapiens, JIMT-1, 144 h): 31 ± 15 pM
IC50 [6, 15]: 0.0106 ± 0.0046 nM
IC50 [9]: 32.2 ± 21.3 pM
IC50 ([7]; Homo sapiens, PC-3, 144 h): 0.0326 ± 0.0103 nM
IC50 ([8]; Homo sapiens, SK-OV-3, 144 h): 0.0596 ± 0.0182 nM

C=C1C[C@H]2C=Nc3cc(OCc4cc(COc5cc6c(cc5OC)C(=O)N5CC(=C)C[C@H]5C=N6)cc(CN(C)C)c4)c(OC)cc3C(=O)N2C1 [Compound D-10]
IC50 [9]: 663 ± 116 pM

COc1cc2c(cc1OCCN(CCOc1cc3c(cc1OC)C(=O)N1Cc4ccccc4C[C@H]1C=N3)c1ccncc1)N=C[C@@H]1Cc3ccccc3CN1C2=O [Compound D-6, (N-Pyridine)-TBD-Dimer]
IC50 ([5]; Homo sapiens, JIMT-1, 144 h): 2980 pM
IC50 [9]: 4110 pM

COc1cc2c(cc1OCCCCCOc1cc3c(cc1OC)C(=O)N1Cc4cc(O)ccc4C[C@H]1C=N3)C=N[C@@H]1Cc3ccccc3CN1C2=O [Compound D-13]
IC50 [9]: 2030 ± 1220 pM

COc1cc2c(cc1OCCN(C)CCOc1cc3c(cc1OC)C(=O)N1Cc4ccccc4C[C@H]1C=N3)N=C[C@@H]1Cc3ccccc3CN1C2=O [Compound D-9]
IC50 [9]: 184 ± 36 pM

COc1cc2c(cc1OCc1cc(COc3cc4c(cc3OC)C(=O)N3Cc5cc(O)ccc5C[C@H]3C=N4)cc(CN(C)C)c1)N=C[C@@H]1Cc3ccccc3CN1C2=O [Compound D-12]
IC50 [9]: 2030 pM

COc1cc2c(cc1OCc1cc(COc3cc4c(cc3OC)C(=O)N3c5ccccc5C[C@H]3C=N4)cc(CN(C)C)c1)N=C[C@@H]1Cc3ccccc3N1C2=O [Compound D-8, (N,N-dimethylbenzyl)-IBD-Dimer]
IC50 [9]: 62 ± 2 pM

C=C1C[C@H]2C=Nc3cc(OCc4cncc(COc5cc6c(cc5OC)C(=O)N5CC(=C)C[C@H]5C=N6)c4)c(OC)cc3C(=O)N2C1 [Compound D-2, (Pyridine)-PBD-Dimer]
IC50 ([1]; Homo sapiens, A498, 144 h): 64 pM
IC50 ([2]; Homo sapiens, Calu-6, 144 h): 29 pM
IC50 ([3]; Homo sapiens, HCT-116, 144 h): 0.036 nM
IC50 ([4]; HEK293E, 144 h): 0.079 nM
IC50 ([5]; Homo sapiens, JIMT-1, 144 h): 34 pM
IC50 [6, 15]: 0.044 nM
IC50 [9]: 104 pM
IC50 ([7]; Homo sapiens, PC-3, 144 h): 0.049 nM
IC50 ([8]; Homo sapiens, SK-OV-3, 144 h): 0.074 nM

CC[C@H](C)[C@@H]([C@@H](CC(=O)N1CCC[C@H]1[C@H](OC)[C@@H](C)C(=O)N[C@@H](Cc1ccccc1)C(=O)OC)OC)N(C)C(=O)[C@@H](NC(=O)[C@@H](NC)C(C)C)C(C)C [MMAF-OMe, reference compound] (H-[NMeV]V[Dil][Dolaproine]F-OMe)
IC50 [1]: 233 pM
IC50 [2]: 162 pM
IC50 [3]: 0.392 nM
IC50 [4]: 0.97 nM
IC50 [5]: 161 pM
IC50 [6]: 0.852 nM
IC50 [7]: 0.212 nM
IC50 [8]: 0.244 nM

COc1cc2c(cc1OCc1cc(O)cc(COc3cc4c(cc3OC)C(=O)N3c5ccccc5C[C@H]3C=N4)c1)N=C[C@@H]1Cc3ccccc3N1C2=O [Compound D-7, (Phenol)-IBD-Dimer]
IC50 [9]: 118 ± 9 pM

C=C1C[C@H]2C=Nc3cc(OCc4cc(O)cc(COc5cc6c(cc5OC)C(=O)N5CC(=C)C[C@H]5C=N6)c4)c(OC)cc3C(=O)N2C1 [Compound D-1, (Phenol)-PBD-Dimer]
IC50 ([1]; Homo sapiens, A498, 144 h): 414 pM
IC50 ([2]; Homo sapiens, Calu-6, 144 h): 89 pM
IC50 ([3]; Homo sapiens, HCT-116, 144 h): 0.109 nM
IC50 ([4]; HEK293E, 144 h): 0.216 nM
IC50 ([5]; Homo sapiens, JIMT-1, 144 h): 102 pM
IC50 [6, 15]: 0.105 nM
IC50 [9]: 191 pM
IC50 ([7]; Homo sapiens, PC-3, 144 h): 0.126 nM
IC50 ([8]; Homo sapiens, SK-OV-3, 144 h): 0.175 nM
